The text below walks through data of publication PMC5218480 (PLoS ONE, 2017).

In this experiment the test system is MV-4-11 cells. Nature of the experiment: Gene expression microarray analysis (Affymetrix PrimeView) and GSEA. The conditions noted are these: ProbeSet 11720269_a_at; LIST B. It counts as cell-based, human. Set-up: RFU PODN (11730768_x_at) / Fold change /veh PODN (11730768_x_at) / RFU LINC00158 (11744669_a_at) / Fold change /veh LINC00158 (11744669_a_at) / RFU DUSP10 (11751237_a_at) / Fold change /veh DUSP10 (11751237_a_at) / RFU ID3 (11757404_x_at) / Fold change /veh ID3 (11757404_x_at) / RFU PLEKHG5 (11737974_s_at) / Fold change /veh PLEKHG5 (11737974_s_at) / RFU LRRC4B (11730491_at) / Fold change /veh LRRC4B (11730491_at) / RFU GIMAP4 (11747438_a_at) / Fold change /veh GIMAP4 (11747438_a_at) / RFU KRT8 (11758183_x_at) / Fold change /veh KRT8 (11758183_x_at) / RFU CNN1 (11734310_a_at) / Fold change /veh CNN1 (11734310_a_at) / RFU VPS37D (11726825_at) / Fold change /veh VPS37D (11726825_at) / RFU C10orf10 (11716522_x_at) / Fold change /veh C10orf10 (11716522_x_at) / RFU KIR2DL2 /// KIR2DL4 /// KIR2DL5A /// KIR2DL5B /// KIR2DS1 /// KIR2DS2 /// KIR2DS3 /// KIR2DS4 /// KIR3DL3 /// KIR3DL3 /// KIR3DS1 (11738374_at) / Fold change /veh KIR2DL2 /// KIR2DL4 /// KIR2DL5A /// KIR2DL5B /// KIR2DS1 /// KIR2DS2 /// KIR2DS3 /// KIR2DS4 /// KIR3DL3 /// KIR3DL3 /// KIR3DS1 (11738374_at) / RFU C1QL1 (11718748_at) / Fold change /veh C1QL1 (11718748_at) / RFU TMPRSS4 (11747572_a_at) / Fold change /veh TMPRSS4 (11747572_a_at) / RFU HAMP (11756126_x_at) / Fold change /veh HAMP (11756126_x_at) / RFU RNFT2 (11725882_a_at) / Fold change /veh RNFT2 (11725882_a_at) / RFU NR4A2 (11747474_a_at) / Fold change /veh NR4A2 (11747474_a_at) / RFU ABCC12 (11746883_a_at) / Fold change /veh ABCC12 (11746883_a_at) / RFU TMEM136 (11760407_x_at) / Fold change /veh TMEM136 (11760407_x_at) / RFU CLDN22 /// WWC2 (11732394_at) / Fold change /veh CLDN22 /// WWC2 (11732394_at) / RFU HLA-DPB1 (11760878_x_at) / Fold change /veh HLA-DPB1 (11760878_x_at) / RFU SPINT1 (11716480_a_at) / Fold change /veh SPINT1 (11716480_a_at) / RFU GAP43 (11754022_s_at) / Fold change /veh GAP43 (11754022_s_at) / RFU A4GNT (11735810_at) / Fold change /veh A4GNT (11735810_at) / RFU PRB3 (11715151_x_at) / Fold change /veh PRB3 (11715151_x_at) / RFU TUBB4B (11761932_at) / Fold change /veh TUBB4B (11761932_at) / RFU CAPN14 (11732068_a_at) / Fold change /veh CAPN14 (11732068_a_at) / RFU TMCC2 (11721928_a_at) / Fold change /veh TMCC2 (11721928_a_at) / RFU IRGQ (11745062_a_at) / Fold change /veh IRGQ (11745062_a_at) / RFU FAM174B (11720279_a_at) / Fold change /veh FAM174B (11720279_a_at) / RFU TMPRSS4 (11748680_a_at) / Fold change /veh TMPRSS4 (11748680_a_at) / RFU FAM212B (11763350_a_at) / Fold change /veh FAM212B (11763350_a_at) / RFU PLEKHG5 (11743358_a_at) / Fold change /veh PLEKHG5 (11743358_a_at) / RFU ZSCAN30 (11745921_a_at) / Fold change /veh ZSCAN30 (11745921_a_at) / RFU CMKLR1 (11741424_a_at) / Fold change /veh CMKLR1 (11741424_a_at) / RFU LOC101060620 /// MAPK8IP1 (11723275_at) / Fold change /veh LOC101060620 /// MAPK8IP1 (11723275_at) / RFU SPTSSB (11747773_x_at) / Fold change /veh SPTSSB (11747773_x_at) / RFU PRSS12 (11739890_at) / Fold change /veh PRSS12 (11739890_at) / RFU BIN1 (11741810_x_at) / Fold change /veh BIN1 (11741810_x_at) / RFU WNT11 (11732464_a_at) / Fold change /veh WNT11 (11732464_a_at) / RFU C10orf10 (11716521_a_at) / Fold change /veh C10orf10 (11716521_a_at) / RFU C5orf56 (11738089_at) / Fold change /veh C5orf56 (11738089_at) / RFU CYB561 (11721691_x_at) / Fold change /veh CYB561 (11721691_x_at) / RFU ANKRD19P (11752326_a_at) / Fold change /veh ANKRD19P (11752326_a_at) / RFU OR2T12 /// OR2T33 /// OR2T8 (11738714_s_at) / Fold change /veh OR2T12 /// OR2T33 /// OR2T8 (11738714_s_at) / RFU VCAN (11748164_a_at) / Fold change /veh VCAN (11748164_a_at) / RFU JSRP1 (11732532_at) / Fold change /veh JSRP1 (11732532_at) / RFU KRTAP10-11 (11738290_x_at) / Fold change /veh KRTAP10-11 (11738290_x_at) / RFU MYO3A (11730013_a_at) / Fold change /veh MYO3A (11730013_a_at) / RFU EBF3 (11725865_a_at) / Fold change /veh EBF3 (11725865_a_at) / RFU CAMK2N1 (11719241_x_at) / Fold change /veh CAMK2N1 (11719241_x_at) / RFU C5orf56 (11738088_a_at) / Fold change /veh C5orf56 (11738088_a_at) / RFU OLFML3 (11715873_a_at) / Fold change /veh OLFML3 (11715873_a_at) / RFU LOC100653217 /// NTM (11731650_a_at) / Fold change /veh LOC100653217 /// NTM (11731650_a_at) / RFU MAPK11 (11762145_a_at) / Fold change /veh MAPK11 (11762145_a_at) / RFU FIZ1 (11724087_x_at) / Fold change /veh FIZ1 (11724087_x_at) / RFU OASL (11726364_x_at) / Fold change /veh OASL (11726364_x_at) / RFU SOX15 (11748057_x_at) / Fold change /veh SOX15 (11748057_x_at) / RFU CD79A (11719716_a_at) / Fold change /veh CD79A (11719716_a_at) / RFU HIST1H1D (11736915_at) / Fold change /veh HIST1H1D (11736915_at) / RFU CASKIN2 (11723855_a_at) / Fold change /veh CASKIN2 (11723855_a_at) / RFU LOC730098 (11760151_x_at) / Fold change /veh LOC730098 (11760151_x_at) / RFU OR4N2 (11742367_at) / Fold change /veh OR4N2 (11742367_at) / RFU PRRT2 (11749266_a_at) / Fold change /veh PRRT2 (11749266_a_at) / RFU SNX32 (11753110_a_at) / Fold change /veh SNX32 (11753110_a_at) / RFU CDHR5 (11726645_a_at) / Fold change /veh CDHR5 (11726645_a_at) / RFU RCAN1 (11760418_a_at) / Fold change /veh RCAN1 (11760418_a_at) / RFU FAM167A (11723789_a_at) / Fold change /veh FAM167A (11723789_a_at) / RFU FAM26E (11764081_at) / Fold change /veh FAM26E (11764081_at) / RFU ISYNA1 (11749810_s_at) / Fold change /veh ISYNA1 (11749810_s_at) / RFU ACY1 (11761880_at) / Fold change /veh ACY1 (11761880_at) / RFU 11764098_at / Fold change /veh 11764098_at / RFU SAMD14 (11745864_x_at) / Fold change /veh SAMD14 (11745864_x_at) / RFU NPB (11741838_a_at) / Fold change /veh NPB (11741838_a_at) / RFU TMPRSS6 (11731388_a_at) / Fold change /veh TMPRSS6 (11731388_a_at) / RFU KRTAP10-2 (11738614_at) / Fold change /veh KRTAP10-2 (11738614_at) / RFU ARHGAP8 /// PRR5-ARHGAP8 (11727945_x_at) / Fold change /veh ARHGAP8 /// PRR5-ARHGAP8 (11727945_x_at) / RFU KRTAP5-7 /// NADSYN1 (11734609_at) / Fold change /veh KRTAP5-7 /// NADSYN1 (11734609_at) / RFU RASL12 (11751679_a_at) / Fold change /veh RASL12 (11751679_a_at) / RFU CDKN2B (11736163_a_at) / Fold change /veh CDKN2B (11736163_a_at) / RFU PRF1 (11729649_at) / Fold change /veh PRF1 (11729649_at) / RFU, ZNF638 /// ZNF638-IT1 / Fold change vs veh, ZNF638 /// ZNF638-IT1 / RFU, PANK3 / Fold change vs veh, PANK3 / RFU, SH3YL1 / Fold change vs veh, SH3YL1 / RFU, ZEB2 / Fold change vs veh, ZEB2 / RFU, NRIP1 / Fold change vs veh, NRIP1 / RFU, PTTG1IP / Fold change vs veh, PTTG1IP / RFU, CAPN2 / Fold change vs veh, CAPN2 / RFU, MED14 / Fold change vs veh, MED14 / RFU, SNORA58 / Fold change vs veh, SNORA58 / RFU, C1orf63 / Fold change vs veh, C1orf63 / RFU, LRRFIP1 / Fold change vs veh, LRRFIP1 / RFU, NDUFAF7 / Fold change vs veh, NDUFAF7 / RFU, SLC12A2 / Fold change vs veh, SLC12A2 / RFU, IBTK / Fold change vs veh, IBTK / RFU, ESF1 / Fold change vs veh, ESF1 / Fold change vs veh, TMEM50B / RFU, TAOK1 / Fold change vs veh, TAOK1 / RFU, ACBD3 / Fold change vs veh, ACBD3 / RFU, TMA16 / Fold change vs veh, TMA16 / RFU, RWDD3 / Fold change vs veh, RWDD3 / RFU, BCAT1 / Fold change vs veh, BCAT1 / RFU, EDEM3 / Fold change vs veh, EDEM3 / RFU, TMEM33 / Fold change vs veh, TMEM33 / RFU, WDR75 / Fold change vs veh, WDR75 / RFU, AHCTF1 / Fold change vs veh, AHCTF1 / RFU, TFRC / Fold change vs veh, TFRC / RFU, ZDHHC17 / Fold change vs veh, ZDHHC17 / RFU, NOM1 / Fold change vs veh, NOM1 / RFU, ARL8B / Fold change vs veh, ARL8B / RFU, ZBTB11 / Fold change vs veh, ZBTB11 / RFU, TAMM41 / Fold change vs veh, TAMM41 / RFU, KIAA1704 /// LOC100996395 / Fold change vs veh, KIAA1704 /// LOC100996395 / RFU, ING1 / Fold change vs veh, ING1 / RFU, TRMT61B / Fold change vs veh, TRMT61B / RFU, FUBP3 / Fold change vs veh, FUBP3 / RFU, TP53 / Fold change vs veh, TP53 / RFU, TNKS2 / Fold change vs veh, TNKS2 / RFU, ZFP14 / Fold change vs veh, ZFP14 / RFU, ACTR2 / Fold change vs veh, ACTR2 / RFU, PPP3R1 / Fold change vs veh, PPP3R1 / RFU, PIK3R1 / Fold change vs veh, PIK3R1 / RFU, HNRNPA1 / Fold change vs veh, HNRNPA1 / RFU, RNF170 / Fold change vs veh, RNF170 / RFU, ZNF28 / Fold change vs veh, ZNF28 / RFU, RNGTT / Fold change vs veh, RNGTT / RFU, OGT / Fold change vs veh, OGT / RFU, BRD1 / Fold change vs veh, BRD1 / RFU, MARS / Fold change vs veh, MARS / RFU, ZNF655 / Fold change vs veh, ZNF655 / RFU, FAHD1 / Fold change vs veh, FAHD1 / RFU, BDP1 / Fold change vs veh, BDP1 / RFU, LRRCC1 / Fold change vs veh, LRRCC1 / RFU, ARID1A / Fold change vs veh, ARID1A / RFU, ZNF146 / Fold change vs veh, ZNF146 / RFU, ZNF330 / Fold change vs veh, ZNF330 / RFU, GPN3 / Fold change vs veh, GPN3 / RFU, C9orf123 / Fold change vs veh, C9orf123 / RFU, N4BP2L2 / Fold change vs veh, N4BP2L2 / RFU, ARFIP1 / Fold change vs veh, ARFIP1 / RFU, FAM179B / Fold change vs veh, FAM179B / RFU, BCL10 / Fold change vs veh, BCL10 / RFU, UHRF1BP1L / Fold change vs veh, UHRF1BP1L / RFU, BET1 / Fold change vs veh, BET1 / RFU, CNOT2 / Fold change vs veh, CNOT2 / RFU, ZNF268 / Fold change vs veh, ZNF268 / Fold change vs veh, ZNF507 / RFU, DGCR2 / Fold change vs veh, DGCR2 / RFU, WDSUB1 / Fold change vs veh, WDSUB1 / Fold change vs veh, HSP90B1 /// MIR3652 / RFU, ADSS / Fold change vs veh, ADSS / RFU, GK / Fold change vs veh, GK / RFU, ZNF148 / Fold change vs veh, ZNF148 / RFU, TAF9 / Fold change vs veh, TAF9 / RFU, SLC1A5 / Fold change vs veh, SLC1A5 / RFU, SLMO2 / Fold change vs veh, SLMO2 / RFU, ABCC4 / Fold change vs veh, ABCC4 / RFU, LOC101060439 /// RAP1B / Fold change vs veh, LOC101060439 /// RAP1B / RFU, RFX7 / Fold change vs veh, RFX7 / RFU, GTPBP10 / Fold change vs veh, GTPBP10 / RFU, CNEP1R1 / Fold change vs veh, CNEP1R1 / RFU, BIVM-ERCC5 /// ERCC5 / Fold change vs veh, BIVM-ERCC5 /// ERCC5 / RFU, ILF3 / Fold change vs veh, ILF3 / RFU 11762660_at / Fold change /veh 11762660_at / RFU VCAN (11757783_s_at) / Fold change /veh VCAN (11757783_s_at) / RFU DDX43 (11728927_at) / Fold change /veh DDX43 (11728927_at) / RFU KRT8 (11758188_x_at) / Fold change /veh KRT8 (11758188_x_at) / RFU NKD1 (11759106_at) / Fold change /veh NKD1 (11759106_at) / RFU SRD5A1 (11742802_a_at) / Fold change /veh SRD5A1 (11742802_a_at) / RFU TPSAB1 /// TPSB2 (11721975_s_at) / Fold change /veh TPSAB1 /// TPSB2 (11721975_s_at) / RFU GSTM3 (11746129_a_at) / Fold change /veh GSTM3 (11746129_a_at) / RFU IL23R (11737362_x_at) / Fold change /veh IL23R (11737362_x_at) / RFU TMEM51 (11727254_a_at) / Fold change /veh TMEM51 (11727254_a_at) / RFU PIWIL2 (11732686_x_at) / Fold change /veh PIWIL2 (11732686_x_at) / RFU ORM1 (11744905_x_at) / Fold change /veh ORM1 (11744905_x_at) / RFU CCDC152 (11743942_at) / Fold change /veh CCDC152 (11743942_at) / RFU ECM1 (11717891_a_at) / Fold change /veh ECM1 (11717891_a_at) / RFU IL23R (11748794_a_at) / Fold change /veh IL23R (11748794_a_at) / RFU TNFAIP8L3 (11732012_x_at) / Fold change /veh TNFAIP8L3 (11732012_x_at) / RFU MBOAT4 (11741988_at) / Fold change /veh MBOAT4 (11741988_at) / RFU 11764193_at / Fold change /veh 11764193_at / RFU TMEM53 (11763286_at) / Fold change /veh TMEM53 (11763286_at) / RFU MAGEB2 (11727129_at) / Fold change /veh MAGEB2 (11727129_at) / RFU TMEM200A (11744735_a_at) / Fold change /veh TMEM200A (11744735_a_at) / RFU CCDC152 (11751479_a_at) / Fold change /veh CCDC152 (11751479_a_at) / RFU FAM211A (11726209_a_at) / Fold change /veh FAM211A (11726209_a_at) / RFU RGS16 (11746705_a_at) / Fold change /veh RGS16 (11746705_a_at) / RFU VCAN (11755009_s_at) / Fold change /veh VCAN (11755009_s_at) / RFU RHOB (11743442_s_at) / Fold change /veh RHOB (11743442_s_at) / RFU RGS16 (11720943_a_at) / Fold change /veh RGS16 (11720943_a_at) / RFU RGS16 (11720944_at) / Fold change /veh RGS16 (11720944_at) / RFU, VPS4B / Fold change vs veh, VPS4B / RFU, CREB1 / Fold change vs veh, CREB1 / RFU, DNAJC13 / Fold change vs veh, DNAJC13 / RFU, GNAQ / Fold change vs veh, GNAQ / RFU, CDK5R1 / Fold change vs veh, CDK5R1 / RFU, ZRANB3 / Fold change vs veh, ZRANB3 / RFU, CUL4A / Fold change vs veh, CUL4A / RFU, CCNY / Fold change vs veh, CCNY / RFU, UFL1 / Fold change vs veh, UFL1 / RFU, COG3 / Fold change vs veh, COG3 / RFU, DIAPH2 / Fold change vs veh, DIAPH2 / RFU, SKA2 / Fold change vs veh, SKA2 / RFU, AFF3 / Fold change vs veh, AFF3 / RFU, LMF1 / Fold change vs veh, LMF1 / RFU, IPO11 / Fold change vs veh, IPO11 / RFU, DFFB / Fold change vs veh, DFFB / RFU, FOXP1 / Fold change vs veh, FOXP1 / RFU, CARD8 / Fold change vs veh, CARD8 / RFU, STRN3 / Fold change vs veh, STRN3 / RFU, ADK / Fold change vs veh, ADK / RFU, RASSF2 / Fold change vs veh, RASSF2 / RFU, WIPF1 / Fold change vs veh, WIPF1 / RFU, LARP1B / Fold change vs veh, LARP1B / RFU, RASA1 / Fold change vs veh, RASA1 / RFU, RB1 / Fold change vs veh, RB1 / RFU, PPFIA1 / Fold change vs veh, PPFIA1 / RFU, MAT2A / Fold change vs veh, MAT2A / RFU, CCT5 / Fold change vs veh, CCT5 / RFU, WDR92 / Fold change vs veh, WDR92 / RFU, CUX1 / Fold change vs veh, CUX1 / RFU, TTC7A / Fold change vs veh, TTC7A / RFU, TMEM135 / Fold change vs veh, TMEM135 / RFU, DEPTOR / Fold change vs veh, DEPTOR / RFU, CPM / Fold change vs veh, CPM / RFU, DNAJB6 / Fold change vs veh, DNAJB6 / RFU, CACNA2D3 / Fold change vs veh, CACNA2D3 / RFU, DTX4 / Fold change vs veh, DTX4 / RFU, TFCP2 / Fold change vs veh, TFCP2 / RFU, GMCL1 /// GMCL1P1 / Fold change vs veh, GMCL1 /// GMCL1P1 / RFU, AEBP2 / Fold change vs veh, AEBP2 / RFU, SNHG1 /// SNORD22 /// SNORD25 /// SNORD26 /// SNORD27 /// SNORD28 /// SNORD29 /// SNORD31 / Fold change vs veh, SNHG1 /// SNORD22 /// SNORD25 /// SNORD26 /// SNORD27 /// SNORD28 /// SNORD29 /// SNORD31 / Fold change (Aza/veh), C12orf56 (ProbeSet 11735607_a_at) / Fold change (ACY-1035/veh), C12orf56 (ProbeSet 11735607_a_at) / Fold change (Aza/veh), FGFR1OP (ProbeSet 11751329_s_at) / Fold change (ACY-1035/veh), FGFR1OP (ProbeSet 11751329_s_at) / Fold change (Aza/veh), VPS36 (ProbeSet 11739960_a_at) / Fold change (ACY-1035/veh), VPS36 (ProbeSet 11739960_a_at) / RFU SYPL1 (11715823_x_at) / Fold change /veh SYPL1 (11715823_x_at) / RFU IGFBP7 (11715501_s_at) / Fold change /veh IGFBP7 (11715501_s_at) / RFU REEP3 (11722064_at) / Fold change /veh REEP3 (11722064_at) / RFU IGLL1 (11728026_x_at) / Fold change /veh IGLL1 (11728026_x_at): dose or concentration left out as unconfirmed.

Regarding `Nc1ccc(-c2cccs2)cc1NC(=O)c1ccc2c(c1)cc(C1CC1)n2CCN1CCOCC1` [ACY-1035], the “Fold change vs veh, IBTK” value was 0.93.
